Source: ChEMBL document CHEMBL3414470, “Synthesis and biological evaluation of 4-oxycoumarin derivatives as a new class of antifilarial agents” (Eur J Med Chem, 2015)
Values after ≈ are worked out from the molar mass of the structure shown.

Experiments:
[1] = system: Brugia malayi; assay: Antifilarial activity against Brugia malayi microfilaria assessed as reduction in motility at 0.039 uM after 5 days by MTT dye reduction assay; type: functional; conditions: 120 h
[2] = system: Brugia malayi; assay: Antifilarial activity against Brugia malayi microfilaria assessed as reduction in motility at 0.156 uM after 5 days by MTT dye reduction assay; type: functional; conditions: 120 h
[3] = system: Brugia malayi; assay: Antifilarial activity against Brugia malayi microfilaria assessed as reduction in motility at 0.019 uM after 5 days by MTT dye reduction assay; type: functional; conditions: 120 h
[4] = system: Brugia malayi; assay: Antifilarial activity against Brugia malayi adult worm infected in jird model assessed as sterile female at 100 mg/kg, sc after 5 days measured till day 45 relative to control; type: functional; conditions: route subcutaneous
[5] = system: Brugia malayi; assay: Antifilarial activity against Brugia malayi microfilaria assessed as reduction in motility at 0.312 uM after 5 days by MTT dye reduction assay; type: functional; conditions: 120 h
[6] = system: Brugia malayi; assay: Antifilarial activity against Brugia malayi adult worm assessed as reduction in motility at 0.019 uM after 5 days by MTT dye reduction assay; type: functional; conditions: 120 h
[7] = system: Brugia malayi; assay: Ratio of ivermectin IC50 to compound IC50 for Brugia malayi adult worm; type: functional
[8] = system: Brugia malayi; assay: Antifilarial activity against Brugia malayi microfilaria assessed as reduction in motility at 0.625 uM after 5 days by MTT dye reduction assay; type: functional; conditions: 120 h
[9] = system: Brugia malayi; assay: Antifilarial activity against Brugia malayi adult worm assessed as reduction in motility after 5 days by MTT dye reduction assay; type: functional, organism-based; conditions: Brugia malayi, 120 h
[10] = system: Brugia malayi; assay: Antifilarial activity against Brugia malayi adult worm assessed as reduction in motility at 0.039 uM after 5 days by MTT dye reduction assay; type: functional; conditions: 120 h
[11] = Cytotoxicity against African green monkey Vero cells after 72 hrs by resazurin dye-based fluorescence assay; type: cell-based; conditions: chlorocebus sabaeus, Vero cells
[12] = system: Brugia malayi; assay: Antifilarial activity against Brugia malayi adult worm assessed as reduction in motility at 0.312 uM after 5 days by MTT dye reduction assay; type: functional; conditions: 120 h
[13] = system: Brugia malayi; assay: Antifilarial activity against Brugia malayi adult worm assessed as reduction in motility at 0.625 uM after 5 days by MTT dye reduction assay; type: functional; conditions: 120 h
[14] = system: Brugia malayi; assay: Antifilarial activity against Brugia malayi adult worm assessed as reduction in motility at 1.25 uM after 5 days by MTT dye reduction assay; type: functional; conditions: 120 h
[15] = system: Brugia malayi; assay: Antifilarial activity against Brugia malayi adult worm assessed as reduction in motility at 0.156 uM after 5 days by MTT dye reduction assay; type: functional; conditions: 120 h
[16] = system: Brugia malayi; assay: Antifilarial activity against Brugia malayi microfilaria assessed as reduction in motility at 1.25 uM after 5 days by MTT dye reduction assay; type: functional; conditions: 120 h
[17] = system: Brugia malayi; assay: Antifilarial activity against Brugia malayi adult worm infected in jird model assessed as adulticidal activity at 100 mg/kg, sc after 5 days measured till day 45 relative to control; type: functional; conditions: route subcutaneous
[18] = Selectivity index, ratio of CC50 for African green monkey Vero cells to IC50 for Brugia malayi microfilaria; type: functional
[19] = system: Brugia malayi; assay: Antifilarial activity against Brugia malayi microfilaria assessed as reduction in motility after 5 days by MTT dye reduction assay; type: functional, organism-based; conditions: Brugia malayi, 120 h
[20] = system: Brugia malayi; assay: Antifilarial activity against Brugia malayi microfilariae infected in jird model assessed as microfilaricidal activity at 100 mg/kg, sc after 5 days measured till day 45 relative to control; type: functional; conditions: route subcutaneous
[21] = system: Brugia malayi; assay: Antifilarial activity against Brugia malayi adult worm assessed as reduction in motility at 0.078 uM after 5 days by MTT dye reduction assay; type: functional; conditions: 120 h
[22] = system: Brugia malayi; assay: Antifilarial activity against Brugia malayi microfilaria assessed as reduction in motility at 0.078 uM after 5 days by MTT dye reduction assay; type: functional; conditions: 120 h
[23] = Selectivity index, ratio of CC50 for African green monkey Vero cells to IC50 for Brugia malayi adult worm; type: functional
[24] = system: Brugia malayi; assay: Ratio of ivermectin IC50 to compound IC50 for Brugia malayi microfilariae; type: functional

Compound CCCCCCCCCCCCNCC(O)COc1cc(=O)oc2ccccc12 (stereo unspecified) has an inhibition at 0.039 µM [1] of 75%, an inhibition at 0.156 µM [2] of 75% and an inhibition at 0.019 µM [3] of 50%. For the same compound, the Activity [4] was 19.3%, the inhibition at 0.312 µM [5] was 75% and the inhibition at 0.019 µM [6] was 30%. For the same compound, the “Ratio IC50” value [7] was 129, the inhibition at 0.625 µM [8] was 75% and the IC50 [9] was 14 nM. For the same compound, the MIC [9] was 1.25 µM (≈ 0.504 µg/mL), the inhibition at 0.039 µM [10] was 50% and the CC50 at 72 h [11] was > 100 µM. The inhibition at 0.312 µM [12] was 90.8%, the inhibition at 0.625 µM [13] was 92.4% and the inhibition at 1.25 µM [14] was 99.5%. The inhibition at 0.156 µM [15] was 75.5%, the inhibition at 1.25 µM [16] was 100% and the Activity [17] was 74.9%. The “Ratio CC50/IC50” value [18] was >17857, the IC50 [19] was 5.6 nM and the MIC [19] was 0.625 µM (≈ 0.252 µg/mL). For the same compound, the Activity [20] was 50.8%, the inhibition at 0.078 µM [21] was 56% and the inhibition at 0.078 µM [22] was 75%. For the same compound, the “Ratio CC50/IC50” value [23] was >7142 and the “Ratio IC50” value [24] was 714.
